Like-named read-outs stand apart in the source and are kept apart here.
Legend:
[1] = system: TNFα, IL-6 and IL-10 cytokine levels; assay: LPS model of acute inflammation in mice; format: in vivo; settings: 10 mg/kg oral gavage; LPS IV 1 h later; blood 2 h after LPS
Method: Acute murine models of inflammation have previously been described (see for example, Engelberts I et. al., Lymphokine Cytokine Res. 10(1-2):127-31 (1991) and Durez P et al., J Exp Med. 177:551-5 (1993)). In these models, mice or rats are administered the compound of interest followed by an injection of LPS (LPS stands for lipopolysaccharide, 100 ng IV administration) one hour later. LP S is a component of bacterial cell walls and elicits a rapid and strong systemic inflammatory response. Two hours after LPS injection, blood is collected, plasma and serum are isolated and cytokine levels are measured. The concentrations of TNFα and IL-6 in blood increase after stimulation with bacterial lipopolysaccharide (LP S). Measurement of cytokine production is carried out with either ELISA or cytokine bead assay (CBA).
The sGC stimulator Compound B was assessed in such an animal model using C57BL/6 mice. The structure of Compound B is depicted below:
The ability of Compound B to modulate cytokine release in vivo was assessed. Compound B was administered by oral gavage (formulated in methylcellulose as the carrier) at 1 and 10 mg/kg doses and the levels of the pro-inflammatory cytokines TNFα and IL-6 were measured, as well as the anti-inflammatory cytokine IL-10. Vehicle (V) and dexamethasone (dex, 5 mg/kg) were used as negative and positive controls, respectively, and 10 mice were used per group.

[2] = Distribution of sGC stimulators in tissues, rats (liver and plasma by LC-MS/MS); format: in vivo; settings: Wistar, rat, 2 h post fifth dose, male rats, read-out: total Liver:Plasma ratio
Method: The purpose of this experiment was to determine compound concentrations in the plasma and tissues of animals dosed with sGC stimulators for 5 days Q.D.
In a first experiment, the sGC stimulator Compound B (described previously in Example 2) was dosed for 5 Days Q.D. to male Wister rats. Rats were divided into four study groups and dosed according to the below table:
The animals were dosed daily for five consecutive days according the table above. On each day of dosing, frozen aliquots of each dosing solution were thawed and the animals were weighed and dosed accordingly. On day 5, two hours post the fifth dose, blood was collected by orbital bleed. Blood samples were collected in EDTA tubes pre-loaded with 5 μL of 100 mM IBMX Plasma was be separated by centrifugation for 10 minutes at 4° C. and then stored at −80° C.
A Ketamine/Xylazine/pbs solution as a 5:1:4 ratio was administered I.P. at 1 ul per gram. Once the rat was fully anesthetized (as determined by checking its reflexes) and while the heart was still beating, a needle was inserted into the left ventricle. Approximately 20 mls of PBS/IBMX/heparin solution were then perfused. The right atrium was snipped, and perfusion continued for approximately 10 additional mls (30 mls total). At this point, the femoral artery was snipped and perfusion was continued until there was no longer blood (only clear fluid) collecting in the abdominal cavity. Several tissues, including liver, were isolated and weighed followed by snap freezing.
A second separate and similar experiment was carried out with Compound C. The structure of Compound C is depicted below. The preparation and characterization of this compound was described in patent application publication WO2014144100, published 18 Sep. 2014.
For this second experiment, rats were divided into four study groups and dosed according to the below table:
Samples were analyzed using liquid chromatography (LC) with tandem mass spectrometric detection (MS/MS) using positive electrospray ionization. The standard curve range was from 0.1 to 400 ng/mL. […]
In order to prepare the tissues for measurement, the naïve livers and the livers isolated after treatment were removed from the −80° C. freezer and placed on liquid nitrogen. The liver weight was recorded and then the tissue placed in a Geno grinding vial containing two 7/16″ steel beads. […] Approximately 200 mg of tissue from each sample was weighed and recorded. […] The samples were analyzed by LC-MS/MS.
Total liver and plasma concentrations were measured and liver concentrations were corrected for total liver weight. Liver: Plasma ratios were determined by dividing liver compound concentration by the plasma compound concentration. […]

[3] = Single ascending dose Phase I study in healthy volunteers; format: in vivo, human; settings: oral capsule, top-line clinical data
Description: In a randomized, double-blind, placebo-controlled, single ascending dose Phase I study enrolling 46 healthy volunteers, participants were randomized 3:1 to receive a single dose of Compound B or placebo administered via an oral capsule.

Kp ([2]; 1 mg/kg PO Q.D. 5 days): 19
Kp ([2]; 10 mg/kg PO Q.D. 5 days): 20
SMILES: OC(CNc1nc(-c2cc(-c3ccon3)n(Cc3ccccc3F)n2)ncc1F)(C(F)(F)F)C(F)(F)F [Compound B]
levels of IL-6 [1]: significantly reduced
levels of IL-10 [1]: increasing
levels of TNFα [1]: significantly reduced
distribution to tissues [3]: evidence of extensive distribution to tissues

Reference: US11357777B2, “Use of sGC stimulators for the treatment of nonalcoholic steatohepatitis (NASH)” (Cyclerion Therapeutics, Inc., priority 2016, dated 2022)
